Experiment [1] deals with human IgG antibodies. Nature of the experiment: Glycan microarray with human sera and saliva, IgG. Type of experiment: binding. The note with it: for IgG antibody binding: human saliva and human serum (blood); for IgG binding in CP saliva compared with healthy (and recovered) patients / IgG antibody binding in saliva, compared between glycans: human saliva; for IgG antibody binding in saliva, compared between glycans: MFI, Figures 12 and 13. An excerpt: (§1) Here, human sera and saliva from P. gingivalis infected patients were used to screen antibodies against the synthetic glycan library 1-11 to determine whether LPS fragments are potential leads for vaccine development.
(§2) Samples were taken from a pool of patients at the Charit6 Zahnklinik (provided by Prof. Dr. Henrik Dommisch). The dental status of three groups of patients was defined as: healthy (20 patients, no clinical indications for CP), infected (16 patients, CP stage III or stage IV) and recovered from CP (six patients). Recovered patients were treated from CP stage III or stage IV at the Charit6 Zahnklinik by resective and regenerative surgery and execution of two to four professional dental cleanings per year.
(§3) The synthesized LPS fragments of P. gingivalis were immobilized at NHS-activated carboxyl-functionalized glass slides in triplicates (Figure 10 A, B). Additionally, a positive glycan control containing the α(1→2)-trirhamnose (5.06) was used in the assay, because most humans develop antibodies against this pathogen-associated glycan

For experiment [2], the system named is C57BL/6NRj mice. As to the kind of experiment: Glycan microarray analysis of antibody binding in sera of immunized mice. Type of experiment: in vivo. An excerpt:
The immunizations were approved by Landesamt für Gesundheit und Soziales Berlin, Germany (Approval ID: G 0329/18). 8 weeks old C57BL/6NRj mice (Janvier, Le Genest-Saint_Isle, France) were housed at Bundesinstitut für Risikobewertung, Berlin, Germany in groups of five animals in individually ventilated cages (Tecniplast, Hohenpeißenberg, Germany) under specific pathogen-free conditions. Housing and experiments were in accordance with institutional guidelines and with the regulations of the Federation of European Laboratory Animal Science Associations (FELASA). Mice were immunized subcutaneously (s.c.) with 1µg of glycoconjugate per injection. The glycoconjugates, together with Alum adjuvant, were diluted in sterile PBS to a final volume of 100 µL per dose. The animals were immunized on day 0 (primary immunization) and boosted on days 14, 28, and final boosting on day 196. Blood (max. 80µL) and saliva were collected every two weeks. The mice were fixed with on hand and a swap was used to collect the saliva and was afterwards centrifuged at 400 g for 5 min. After coagulation at room temperature, serum was separated by centrifugation at 2,000 g for 10 min. The sera and saliva were frozen at -20°C until further usage. [drawing 126]
Synthetic polysaccharides containing an amine linker as well as protein controls were immobilized on glass microarray slides. The slides were then quenched, blocked with 1% BSA-PBS, and stored at 4°C until use. […]
Slides were incubated for 1 hour at 37 °C in a humidification chamber, washed three times with PBST, rinsed with deionized water, and dried by centrifugation. Fluorescence signals were measured with a Genepix 4300A device (Molecular Devices, Sunnyvale, CA, USA).
The photomultiplier tube (PMT) voltage was adjusted to avoid oversaturation of the signals. Data were analyzed using GenePix Pro 7 software (Molecular Devices, Sunnyvale, CA, USA). […]

Experiment [3] relates to human IgA antibodies. Nature of the experiment: Glycan microarray with human sera and saliva, IgA. It counts as binding. The settings on record: human saliva and serum.
Text: as §1, §2, §3

Entries after “also recorded” stand apart in the source; their conditions may differ.

As to `CC(=O)N[C@H]1[C@H](O[C@H]2[C@@H](O)[C@@H](CO)O[C@H](OCCCCCN)[C@@H]2O)O[C@H](CO)[C@H](O)[C@@H]1O[C@@H]1O[C@@H](C)[C@H](O[C@H]2O[C@H](CO)[C@@H](O)[C@H](O)[C@H]2O)[C@@H](O)[C@H]1O` [compound 3, 5-Amino-pentyl α-D-glucopyranosyl-(1→4)-α-L-rhamnopyranosyl-(1→3)-2-acetamido-2-deoxy-β-D-galactopyranosyl-(1→3)-α-D-galactopyranoside], the IgG antibody binding entry in experiment [1] is “showed IgG antibody binding; also recorded: show binding to IgG antibodies”.
Regarding `CC(=O)N[C@H]1[C@H](OCCCCCN)O[C@H](CO)[C@H](O)[C@@H]1O[C@@H]1O[C@@H](C)[C@H](O[C@H]2O[C@H](CO[C@H]3O[C@H](CO)[C@H](O)[C@H](O)[C@H]3O)[C@@H](O)[C@H](O)[C@H]2O)[C@@H](O)[C@H]1O` [compound 1, 5-Aminopentyl-α-D-galactopyranosyl-(1→6)-α-D-glucopyranosyl-(1→4)-α-L-rhamnopyranosyl-(1→3)-2-acetamido-2-deoxy-B-D-galactopyranoside], in experiment [1], the “IgG binding in CP saliva compared with healthy (and recovered) patients” value is recorded as “significantly higher than in dental healthy patients” and the “IgG antibody binding in saliva, compared between glycans” value was “strongest IgG interaction observed in these studies; also recorded: highest amount of bound IgG antibodies in this study”. In addition, in experiment [1] (human serum), the “IgG in serum of patients infected with P. gingivalis” value is “binds”. Moreover, the IgM-responses result in experiment [2] (course of the experiment, response against the named glycan) is recorded as “remained at low levels”.
As to `CC(=O)N[C@H]1[C@H](O[C@H]2[C@@H](O)[C@@H](CO)O[C@H](OC[C@H]3O[C@H](O[C@@H]4[C@@H](O)[C@@H](O)[C@H](OCCCCCN)O[C@H]4C)[C@H](O)[C@@H](O)[C@@H]3O)[C@@H]2O)O[C@H](CO)[C@H](O)[C@@H]1O` [compound 4, 5-Aminopentyl-2-acetamido-2-deoxy-β-D-galactopyranosyl-(1→3)-α-D-galactopyranosyl-(1→6)-α-D-glucopyranosyl-(1→4)-α-L-rhamnopyranoside], in experiment [1], the IgG antibody binding result is “showed IgG antibody binding” and the “IgG antibody binding in saliva, compared between glycans” value is on record as “higher IgG antibody binding than 5 tetrasaccharide”.
For the compound `CC(=O)N[C@H]1[C@H](O[C@H]2[C@@H](O)[C@@H](CO)O[C@H](OCCCCCN)[C@@H]2O)O[C@H](CO)[C@H](O)[C@@H]1O[C@@H]1O[C@@H](C)[C@H](O)[C@@H](O)[C@H]1O` [compound 2, 5-Aminopentyl-α-L-rhamnopyranosyl-(1→3)-2-acetamido-2-deoxy-β-D-galactopyranosyl-(1→3)-α-D-galactopyranoside], in experiment [1], the “IgG binding in CP saliva compared with healthy (and recovered) patients” value is on record as “stronger IgG binding observed for CP patients”; the IgG antibody binding result is listed as “show binding to IgG antibodies”; the “IgG antibody binding in saliva, compared between glycans” value is given as “higher amount of IgG antibody binding than to rhamnose monomer 9”. In addition, the IgM levels entry in experiment [2] (day 28, response against the named glycan) is recorded as “relatively high”. Moreover, in experiment [2] (response against the named glycan in mice immunized with its CRM197 conjugate (text names only the glycan)), the IgM response peaked stood at 14 days.
In the case of `CC(=O)N[C@H]1[C@H](O[C@H]2[C@@H](O)[C@@H](CO)O[C@H](OC[C@H]3O[C@H](OCCCCCN)[C@H](O)[C@@H](O)[C@@H]3O)[C@@H]2O)O[C@H](CO)[C@H](O)[C@@H]1O[C@@H]1O[C@@H](C)[C@H](O)[C@@H](O)[C@H]1O` [compound 5, 5-Aminopentyl-α-L-rhamnopyranosyl-(1→3)-2-acetamido-2-deoxy-β-D-galactopyranosyl-(1→3)-α-D-galactopyranosyl-(1→6)-α-D-glucopyranoside], the IgG antibody binding result in experiment [1] is on record as “showed IgG antibody binding; also recorded: show binding to IgG antibodies”.
In the case of `NCCCCCO[C@H]1O[C@H](CO[C@H]2O[C@H](CO)[C@H](O)[C@H](O)[C@H]2O)[C@@H](O)[C@H](O)[C@H]1O` [compound 7], in experiment [1], the IgG antibody binding entry is “showed IgG antibody binding; also recorded: show binding to IgG antibodies” and the “IgG antibody binding in saliva, compared between glycans” value is “bind significantly less IgG”. Moreover, the IgA antibody binding entry in experiment [3] was “significant binding of IgA”.
As to `NCCCCCO[C@H]1O[C@H](CO)[C@H](O)[C@H](O)[C@H]1O` [compound 11, 5-Aminopentyl α-D-galactopyranoside], in experiment [1], the IgG antibody binding entry is “show binding to IgG antibodies” and the “IgG antibody binding in saliva, compared between glycans” value is “bind significantly less IgG”.
With `C[C@@H]1O[C@@H](O[C@H]2[C@H](O[C@H]3[C@H](OCCCCCN)O[C@@H](C)[C@H](O)[C@H]3O)O[C@@H](C)[C@H](O)[C@H]2O)[C@H](O)[C@H](O)[C@H]1O` [5.06, 5-Aminopentyl-a-(1→2)-L-trirhamnopyranoside, reference compound], in experiment [1] (healthy individuals compared with CP and recovered CP patients), the “IgG antibodies in saliva” value was “also observed in healthy individuals, but significantly less than in chronical periodontitis patients and recovered chronical periodontitis patients”. Further, the IgG antibody binding result in experiment [1] is reported as “showed IgG antibody binding”. The IgA antibody binding result in experiment [3] is recorded as “significant binding of IgA”.

The record behind these values is patent EP4631951A1, “SYNTHETIC VACCINES AGAINST POR[…]” (Max-Planck-Gesellschaft zur Förderung der Wissenschaften …, priority 2024, dated 2025).
